Literature values, collected in patent US20230159896A1, “MULTI-LINEAGE CARDIOVASCULAR MICROFLUIDIC ORGAN-CHIP” (CEDARS-SINAI MEDICAL CENTER, priority 2020, published 2023).
“Also recorded” adds a separate entry of the source.

Tests used:
[1] = clinical, at common dose; for Cmax: read-out: Molar Cmax
[2] = for Cardiovascular side effects: patients
[3] = test system: patient-specific hiPSC-CMs
zebrafish = zebrafish model
PI3K/Akt = conditions: hiPSC-CMs, previous study

| Peak plasma concentration (Cmax) [1] | Cmax [1] | Molecule | Cardiovascular side effects [2] | also measured |
| --- | --- | --- | --- | --- |
| 660 ng/mL | 1540 nM | COc1cc2nccc(Oc3ccc(NC(=O)NC4CC4)c(Cl)c3)c2cc1C(N)=O [lenvatinib] |  |  |
| 1960 ng/mL | 3650 nM | Cc1ccc(Nc2nccc(N(C)c3ccc4c(C)n(C)nc4c3)n2)cc1S(N)(=O)=O [pazopanib] | may cause heart failure or vascular toxicity |  |
|  | 140 nM | Cc1ccc(C(=O)Nc2ccc(CN3CCN(C)CC3)c(C(F)(F)F)c2)cc1C#Cc1cnc2cccnn12 [ponatinib] | severe vascular toxicity | FDA black box warning ([2]; human, in vivo): arterial occlusions and venous thromboembolisms as well as hepatotoxicity; Cytotoxicity on hiPSC-CMs relative to other TKIs ([3]; previous hiPSC-CM study): most cytotoxic of all TKIs studied |
| 960 ng/mL |  | COc1cc2c(Nc3ccc(Br)cc3F)ncnc2cc1OCC1CCN(C)CC1 [vandetanib] |  | hiPSC-CM contractile function ([3]; clinically-relevant concentrations, TKIs with FDA black-box warnings): contractile dysfunction |

Second part, the molecule before the results:

| Molecule | Peak plasma concentration (Cmax) [1] | Cmax [1] | Cardiovascular side effects [2] | also measured |
| --- | --- | --- | --- | --- |
| CNC(=O)c1ccccc1Sc1ccc2c(/C=C/c3ccccn3)n[nH]c2c1 [axitinib] | 12.6 ng/mL | 900 nM |  |  |
| COc1cc2ncnc(Nc3ccc(F)c(Cl)c3)c2cc1OCCCN1CCOCC1 [gefitinib] |  |  | typically does not exhibit cardiotoxic side effects |  |
| CNC(=O)c1cc(Oc2ccc(NC(=O)Nc3ccc(Cl)c(C(F)(F)F)c3)c(F)c2)ccn1 [regorafenib] | 2500 ng/mL | 8080 nM |  |  |
| CNC(=O)c1cc(Oc2ccc(NC(=O)Nc3ccc(Cl)c(C(F)(F)F)c3)cc2)ccn1 [sorafenib] |  |  | cause hypertension, ischemia, and cardiac side-effects; also recorded: may cause heart failure or vascular toxicity | Survival (zebrafish): decrease survival |
| CCN(CC)CCNC(=O)c1c(C)[nH]c(/C=C2\C(=O)Nc3ccc(F)cc32)c1C [sunitinib] | 81.9 ng/mL | 1200 nM | cause hypertension, ischemia, and cardiac side-effects; also recorded: may cause heart failure or vascular toxicity | Survival (zebrafish): decrease survival |
| insulin: Akt pathway activator |  |  |  | PI3K/Akt phosphorylation (PI3K/Akt): significantly enhanced; Effect of co-treatment on TKI-induced CM toxicity ([3]; co-treatment with Akt pathway activators): reversed TKI-induced CM toxicity |
